Target: Cav2.3 (Homo sapiens, UniProt Q15878)
Test: Human Cav2.3 channel calcium-influx assay
Format: cell-based
Conditions: Fluo8 fluorescence, HEK-293 T-Rex/Kir2.1/Cav2.3e cells, without pluronic acid, read-out: Cav2.3 (pIC50) (converted)
Outline: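 HEK-293 T-Rex/Kir2.1 cells with doxycycline (0.2 μg/mL)-inducible Cav2.3e plus Cavβ4-α2δ1, loaded with Fluo8 NW in 0 mM K+ Tyrode's. Compounds (8 points, top 30 μM, half-log, 0.3% final DMSO, n=4) preincubated 3 min at RT, then depolarized with 20 mM KCl/2 mM CaCl2 (final); fluorescence read 130 s.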

Cav2.3, sequence (Q15878 whole entry, looked up): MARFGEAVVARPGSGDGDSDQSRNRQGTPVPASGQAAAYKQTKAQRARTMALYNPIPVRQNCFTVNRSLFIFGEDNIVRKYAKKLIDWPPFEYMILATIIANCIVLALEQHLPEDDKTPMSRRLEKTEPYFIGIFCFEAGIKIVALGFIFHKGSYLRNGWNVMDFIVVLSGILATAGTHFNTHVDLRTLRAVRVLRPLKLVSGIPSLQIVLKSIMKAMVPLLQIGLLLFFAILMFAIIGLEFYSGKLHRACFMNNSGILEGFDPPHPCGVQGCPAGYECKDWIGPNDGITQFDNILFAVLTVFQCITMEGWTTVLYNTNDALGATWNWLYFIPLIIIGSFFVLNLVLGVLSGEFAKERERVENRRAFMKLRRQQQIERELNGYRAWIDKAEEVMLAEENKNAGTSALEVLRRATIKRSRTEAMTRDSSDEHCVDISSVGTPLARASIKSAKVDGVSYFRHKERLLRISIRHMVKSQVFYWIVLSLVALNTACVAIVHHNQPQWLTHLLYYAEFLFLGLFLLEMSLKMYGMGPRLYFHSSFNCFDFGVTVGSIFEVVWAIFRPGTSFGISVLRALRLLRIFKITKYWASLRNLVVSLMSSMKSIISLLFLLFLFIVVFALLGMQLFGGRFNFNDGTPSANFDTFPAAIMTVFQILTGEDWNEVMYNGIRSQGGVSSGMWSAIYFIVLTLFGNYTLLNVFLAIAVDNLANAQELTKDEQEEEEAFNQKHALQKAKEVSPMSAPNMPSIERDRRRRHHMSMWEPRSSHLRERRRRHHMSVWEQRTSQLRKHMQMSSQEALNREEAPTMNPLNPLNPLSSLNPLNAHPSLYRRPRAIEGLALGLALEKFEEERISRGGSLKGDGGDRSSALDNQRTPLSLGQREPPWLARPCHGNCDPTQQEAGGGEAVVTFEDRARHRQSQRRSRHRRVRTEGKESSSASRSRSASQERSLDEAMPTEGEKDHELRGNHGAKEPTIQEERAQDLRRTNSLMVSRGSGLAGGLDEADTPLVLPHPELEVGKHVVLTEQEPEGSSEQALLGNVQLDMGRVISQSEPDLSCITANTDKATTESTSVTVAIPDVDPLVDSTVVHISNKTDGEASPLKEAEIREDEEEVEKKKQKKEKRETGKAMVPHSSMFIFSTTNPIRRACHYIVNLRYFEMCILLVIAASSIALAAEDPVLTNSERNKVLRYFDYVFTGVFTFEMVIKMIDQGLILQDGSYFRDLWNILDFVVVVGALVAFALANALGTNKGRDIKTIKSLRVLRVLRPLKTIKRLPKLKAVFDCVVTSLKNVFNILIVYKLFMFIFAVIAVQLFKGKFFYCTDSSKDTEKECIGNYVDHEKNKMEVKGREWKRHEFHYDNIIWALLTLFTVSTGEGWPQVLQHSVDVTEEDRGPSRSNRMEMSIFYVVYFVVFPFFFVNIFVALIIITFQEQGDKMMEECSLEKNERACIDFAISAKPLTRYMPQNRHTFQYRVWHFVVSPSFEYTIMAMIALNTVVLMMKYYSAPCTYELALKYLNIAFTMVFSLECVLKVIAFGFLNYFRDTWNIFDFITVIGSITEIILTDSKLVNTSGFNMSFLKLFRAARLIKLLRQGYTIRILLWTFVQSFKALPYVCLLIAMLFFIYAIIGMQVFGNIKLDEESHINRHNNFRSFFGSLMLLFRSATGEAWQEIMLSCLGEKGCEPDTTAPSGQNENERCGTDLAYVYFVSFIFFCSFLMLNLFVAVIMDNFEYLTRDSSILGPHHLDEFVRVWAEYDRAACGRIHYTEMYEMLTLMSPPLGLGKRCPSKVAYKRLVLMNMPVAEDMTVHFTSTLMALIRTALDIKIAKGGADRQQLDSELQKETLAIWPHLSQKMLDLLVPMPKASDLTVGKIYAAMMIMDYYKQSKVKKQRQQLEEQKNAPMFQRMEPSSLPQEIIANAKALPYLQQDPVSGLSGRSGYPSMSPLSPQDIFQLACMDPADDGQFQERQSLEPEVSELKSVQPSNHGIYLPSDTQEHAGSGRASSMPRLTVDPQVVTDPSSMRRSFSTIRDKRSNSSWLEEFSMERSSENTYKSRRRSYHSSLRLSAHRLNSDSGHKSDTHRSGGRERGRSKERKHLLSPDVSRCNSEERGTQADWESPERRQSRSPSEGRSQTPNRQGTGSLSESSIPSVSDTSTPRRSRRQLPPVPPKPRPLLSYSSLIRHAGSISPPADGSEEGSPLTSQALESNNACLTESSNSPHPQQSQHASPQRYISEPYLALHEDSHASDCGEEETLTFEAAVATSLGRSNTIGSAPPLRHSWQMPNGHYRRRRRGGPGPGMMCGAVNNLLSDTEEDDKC

Row | SMILES | IC50 [µM]
1 | CCN(C(c1ccc(F)cc1)C(F)(F)F)S(=O)(=O)c1cncc(C(N)=O)c1 (centres unmarked) [Example 51, 5-(N-ethyl-N-(2,2,2-trifluoro-1-(4-fluorophenyl)ethyl)sulfamoyl)nicotinamide] | 0.372
2 | CCN(C(c1ccc(Cl)cc1)C(F)(F)F)S(=O)(=O)c1cncc(C#N)c1 (centres unmarked) [Example 54, N-(1-(4-chlorophenyl)-2,2,2-trifluoroethyl)-5-cyano-N-ethylpyridine-3-sulfonamide] | 0.0372
3 | N#Cc1cncc(S(=O)(=O)N(CCF)C(c2ccc(F)cc2)C(F)(F)F)c1 (centres unmarked) [Example 64, 5-Cyano-N-(2-fluoroethyl)-N-(2,2,2-trifluoro-1-(4-fluorophenyl)ethyl)pyridine-3-sulfonamide] | 0.178
4 | N#Cc1cncc(S(=O)(=O)N(CCF)[C@@H](c2ccc(F)cc2)C(F)(F)F)c1 [Example 65, (S)-5-Cyano-N-(2-fluoroethyl)-N-(2,2,2-trifluoro-1-(4-fluorophenyl)ethyl)pyridine-3-sulfonamide] | 3.8
5 | N#Cc1cncc(S(=O)(=O)N(CCF)[C@H](c2ccc(F)cc2)C(F)(F)F)c1 [Example 66, (R)-5-cyano-N-(2-fluoroethyl)-N-(2,2,2-trifluoro-1-(4-fluorophenyl)ethyl)pyridine-3-sulfonamide] | 0.0407
6 | CN(C(c1ccc(C(F)(F)F)cc1)C(F)(F)F)S(=O)(=O)c1cncc(C#N)c1 (centres unmarked) [Example 67, 5-Cyano-N-methyl-N-(2,2,2-trifluoro-1-(4-(trifluoromethyl)phenyl)ethyl)pyridine-3-sulfonamide] | 0.107
7 | CN([C@@H](c1ccc(C(F)(F)F)cc1)C(F)(F)F)S(=O)(=O)c1cncc(C#N)c1 [Example 69, (S)-5-Cyano-N-methyl-N-(2,2,2-trifluoro-1-(4-(trifluoromethyl)phenyl)ethyl)pyridine-3-sulfonamide] | 5.62
8 | CCN(C(c1ccc(F)cc1)C(F)(F)F)S(=O)(=O)c1ncc(C#N)s1 (centres unmarked) [Example 80, 5-Cyano-N-ethyl-N-(2,2,2-trifluoro-1-(4-fluorophenyl)ethyl)thiazole-2-sulfonamide] | 0.447
9 | CCN(C(c1ccc(F)cc1)C(F)(F)F)S(=O)(=O)c1cnc(C#N)s1 (centres unmarked) [Example 82, 2-Cyano-N-ethyl-N-(2,2,2-trifluoro-1-(4-fluorophenyl)ethyl)thiazole-5-sulfonamide] | 0.912
10 | CCN([C@@H](c1ccc(F)cc1)C(F)(F)F)S(=O)(=O)c1cnc(C#N)s1 [Example 83, (S)-2-Cyano-N-ethyl-N-(2,2,2-trifluoro-1-(4-fluorophenyl)ethyl)thiazole-5-sulfonamide] | 3.8
11 | CCN([C@H](c1ccc(F)cc1)C(F)(F)F)S(=O)(=O)c1cnc(C#N)s1 [Example 84] | 0.871
12 | CCN(C(c1ccc(F)cc1)C(F)(F)F)S(=O)(=O)c1cc(N2CCOCC2)cs1 (centres unmarked) [Example 92, N-ethyl-4-morpholino-N-(2,2,2-trifluoro-1-(4-fluorophenyl)ethyl)thiophene-2-sulfonamide] | 1.32
13 | CCN(C(c1ccc(F)cc1)C(F)(F)F)S(=O)(=O)c1cncc(C2COC2)c1 (centres unmarked) [Example 99, N-ethyl-5-(oxetan-3-yl)-N-(2,2,2-trifluoro-1-(4-fluorophenyl)ethyl)pyridine-3-sulfonamide] | 0.275
14 | CCN([C@@H](c1ccc(OC(F)(F)F)cc1)C(F)(F)F)S(=O)(=O)c1cncc(C#N)c1 [Example 118, (S)-5-Cyano-N-ethyl-N-(2,2,2-trifluoro-1-(4-(trifluoromethoxy)phenyl)ethyl)pyridine-3-sulfonamide] | 5.62
15 | CCN([C@H](c1ccc(OC(F)(F)F)cc1)C(F)(F)F)S(=O)(=O)c1cncc(C#N)c1 [Example 119, (R)-5-Cyano-N-ethyl-N-(2,2,2-trifluoro-1-(4-(trifluoromethoxy)phenyl)ethyl)pyridine-3-sulfonamide] | 0.0871
16 | CCN(C(c1ccc(F)cc1)C(F)(F)F)S(=O)(=O)c1cnnc(OC)c1 (centres unmarked) [Example 121, N-ethyl-6-methoxy-N-(2,2,2-trifluoro-1-(4-fluorophenyl)ethyl)pyridazine-4-sulfonamide] | 0.191
17 | CCN([C@@H](c1ccc(F)cc1)C(F)(F)F)S(=O)(=O)c1cnnc(OC)c1 [Example 122, (S)—N-ethyl-6-methoxy-N-(2,2,2-trifluoro-1-(4-fluorophenyl)ethyl)pyridazine-4-sulfonamide] | 7.24
18 | CCN([C@H](c1ccc(F)cc1)C(F)(F)F)S(=O)(=O)c1cnnc(OC)c1 [Example 123, (R)—N-ethyl-6-methoxy-N-(2,2,2-trifluoro-1-(4-fluorophenyl)ethyl)pyridazine-4-sulfonamide] | 0.166
19 | CCN([C@@H](c1ccc(OC)cc1)C(F)(F)F)S(=O)(=O)C1CCOCC1 [Example 126, (S)—N-ethyl-N-(2,2,2-trifluoro-1-(4-methoxyphenyl)ethyl)tetrahydro-2H-pyran-4-sulfonamide] | 30.2
20 | CCN([C@H](c1ccc(OC)cc1)C(F)(F)F)S(=O)(=O)C1CCOCC1 [Example 127, (R)—N-ethyl-N-(2,2,2-trifluoro-1-(4-methoxyphenyl)ethyl)tetrahydro-2H-pyran-4-sulfonamide] | 0.309
21 | COc1ccc([C@H](N(C)S(=O)(=O)C2CCOCC2)C(F)(F)F)cc1 [Example 128, (S)—N-methyl-N-(2,2,2-trifluoro-1-(4-methoxyphenyl)ethyl)tetrahydro-2H-pyran-4-sulfonamide] | 14.1
22 | COc1ccc([C@@H](N(C)S(=O)(=O)C2CCOCC2)C(F)(F)F)cc1 [Example 129, (R)—N-methyl-N-(2,2,2-trifluoro-1-(4-methoxyphenyl)ethyl)tetrahydro-2H-pyran-4-sulfonamide] | 1.17

Results, then the compound that gave them:

Row | IC50 [µM] | SMILES
23 | 0.339 | CCN(C(c1ccc(F)cc1)C(F)(F)F)S(=O)(=O)c1csc(C(N)=O)n1 (centres unmarked) [Example 49, 4-(N-ethyl-N-(2,2,2-trifluoro-1-(4-fluorophenyl)ethyl)sulfamoyl)thiazole-2-carboxamide]
24 | 0.24 | CCN(C(c1ccc(F)cc1)C(F)(F)F)S(=O)(=O)c1csc(C#N)n1 (centres unmarked) [Example 50, 2-cyano-N-ethyl-N-(2,2,2-trifluoro-1-(4-fluorophenyl)ethyl)thiazole-4-sulfonamide]
25 | 0.955 | CCN(C(c1ccc(F)cc1)C(F)(F)F)S(=O)(=O)c1nccs1 (centres unmarked) [Example 81, N-ethyl-N-(2,2,2-trifluoro-1-(4-fluorophenyl)ethyl)thiazole-2-sulfonamide]
26 | 0.38 | CCN(C(c1ccc(F)cc1)C(F)(F)F)S(=O)(=O)c1ccc(=O)n(C)c1 (centres unmarked) [Example 100, N-ethyl-1-methyl-6-oxo-N-(2,2,2-trifluoro-1-(4-fluorophenyl)ethyl)-1,6-dihydropyridine-3-sulfonamide]
27 | 0.182 | CCN([C@H](c1ccc(F)cc1)C(F)(F)F)S(=O)(=O)c1ccc(=O)n(C)c1 [Example 101, (R)—N-ethyl-1-methyl-6-oxo-N-(2,2,2-trifluoro-1-(4-fluorophenyl)ethyl)-1,6-dihydropyridine-3-sulfonamide]
28 | 6.76 | CCN([C@@H](c1ccc(F)cc1)C(F)(F)F)S(=O)(=O)c1ccc(=O)n(C)c1 [Example 102, (S)—N-ethyl-1-methyl-6-oxo-N-(2,2,2-trifluoro-1-(4-fluorophenyl)ethyl)-1,6-dihydropyridine-3-sulfonamide]
29 | 0.132 | CCN(C(c1ccc(F)cc1)C(F)(F)F)S(=O)(=O)c1cncc(C(C)=O)c1 (centres unmarked) [Example 120, 5-acetyl-N-ethyl-N-(2,2,2-trifluoro-1-(4-fluorophenyl)ethyl)pyridine-3-sulfonamide]
30 | 0.0724 | CCN([C@H](c1ccc(F)cc1)C(F)(F)F)S(=O)(=O)c1ccn2ncnc2c1 [Example 137, (R)—N-ethyl-N-(2,2,2-trifluoro-1-(4-fluorophenyl)ethyl)-[1,2,4]triazolo[1,5-a]pyridine-7-sulfonamide]
31 | 0.562 | CCN([C@H](c1ccc(F)cc1)C(F)(F)F)S(=O)(=O)c1cnc2[nH]ccc2n1 [Example 140, (R)—N-ethyl-N-(2,2,2-trifluoro-1-(4-fluorophenyl)ethyl)-5H-pyrrolo[2,3-b]pyrazine-2-sulfonamide]
32 | 0.575 | CCN([C@H](c1ccc(F)cc1)C(F)(F)F)S(=O)(=O)c1cnc2c(C#N)cnn2c1 [Example 141, (R)-3-cyano-N-ethyl-N-(2,2,2-trifluoro-1-(4-fluorophenyl)ethyl)pyrazolo[1,5-a]pyrimidine-6-sulfonamide]
33 | 1.07 | CCN([C@H](c1ccc(F)cc1)C(F)(F)F)S(=O)(=O)c1cn2ccccc2n1 [Example 142, (R)—N-ethyl-N-(2,2,2-trifluoro-1-(4-fluorophenyl)ethyl)imidazo[1,2-a]pyridine-2-sulfonamide]
34 | 4.17 | CCN([C@H](c1ccc(F)cc1)C(F)(F)F)S(=O)(=O)c1nc2ccccn2c1Cl [Example 143, (R)-3-chloro-N-ethyl-N-(2,2,2-trifluoro-1-(4-fluorophenyl)ethyl)imidazo[1,2-a]pyridine-2-sulfonamide]
35 | 1.78 | CCN([C@H](c1ccc(F)cc1)C(F)(F)F)S(=O)(=O)c1nc2cnccn2n1 [Example 144, (R)—N-ethyl-N-(2,2,2-trifluoro-1-(4-fluorophenyl)ethyl)-[1,2,4]triazolo[1,5-a]pyrazine-2-sulfonamide]
36 | 0.0251 | CCN([C@H](c1ccc(F)cc1)C(F)(F)F)S(=O)(=O)c1ccn2nncc2c1 [Example 145, (R)—N-ethyl-N-(2,2,2-trifluoro-1-(4-fluorophenyl)ethyl)-[1,2,3]triazolo[1,5-a]pyridine-5-sulfonamide]
37 | 0.0174 | CCN([C@H](c1ccc(F)cc1)C(F)(F)F)S(=O)(=O)c1ccc2nccn2c1 [Example 146, (R)—N-ethyl-N-(2,2,2-trifluoro-1-(4-fluorophenyl)ethyl)imidazo[1,2-a]pyridine-6-sulfonamide]
38 | 0.158 | CCN([C@H](c1ccc(F)cc1)C(F)(F)F)S(=O)(=O)c1cnc2nsnc2c1 [Example 147, (R)—N-ethyl-N-(2,2,2-trifluoro-1-(4-fluorophenyl)ethyl)-[1,2,5]thiadiazolo[3,4-b]pyridine-6-sulfonamide]

Source: patent publication US20250115569A1, “SULFONAMIDE COMPOUNDS FOR THE TREATMENT OF NEUROLOGICAL CONDITIONS” (LARIO THERAPEUTICS LIMITED, priority 2021, published 2025)
